Experimental data published in ChEMBL document CHEMBL5058641, “Data for DCP probe TP-050” (2022).

Assays:
[1] = biological target: T1, Kappa-type opioid receptor (Homo sapiens, UniProt P41145); conditions: Compound concentration 10.0 uM
Histamine H1 receptor = Histamine H1 receptor (Homo sapiens, UniProt P35367); test: HRH1 Eurofins SafetyScan (Receptor)
[2] = biological target: Muscarinic acetylcholine receptor M1 (Homo sapiens) (UniProt P11229); conditions: Compound concentration 10.0 uM
[3] = biological target: Muscarinic acetylcholine receptor M1 (Homo sapiens, UniProt P11229); test: CHRM1 Eurofins SafetyScan (Receptor)
Glucocorticoid receptor = Glucocorticoid receptor (Homo sapiens, UniProt P04150); test: GR Eurofins SafetyScan (Receptor)
Histamine H2 receptor [4] = biological target: T2, Histamine H2 receptor (Homo sapiens, UniProt P25021); conditions: Compound concentration 10.0 uM
[5] = biological target: Delta-type opioid receptor (Homo sapiens, UniProt P41143); conditions: Compound concentration 10.0 uM
[6] = biological target: Muscarinic acetylcholine receptor M4 (Homo sapiens) (UniProt P08173); conditions: Compound concentration 10.0 uM
[7] = biological target: T3, Beta-1 adrenergic receptor (Homo sapiens, UniProt P08588); conditions: Compound concentration 10.0 uM
Cannabinoid receptor 2 = Cannabinoid receptor 2 (Homo sapiens, UniProt P34972); test: CNR2 Eurofins SafetyScan (Receptor)
Histamine H2 receptor [8] = biological target: T2, Histamine H2 receptor; test: HRH2 Eurofins SafetyScan (Receptor)
D(1A) dopamine receptor = D(1A) dopamine receptor (Homo sapiens, UniProt P21728); conditions: Compound concentration 10.0 uM
Rattus norvegicus = species on record: Rattus norvegicus; conditions: Compound concentration 10.0 uM
[9] = biological target: Sodium-dependent serotonin transporter (Homo sapiens, UniProt P31645); test: SERT Eurofins SafetyScreen (Other); parameters: species or system Blocker
[10] = biological target: Voltage-dependent L-type calcium channel subunit alpha-1C (Homo sapiens, UniProt Q13936); test: CAV1.2 Eurofins SafetyScreen (Other); parameters: species or system Blocker
[11] = biological target: T4, Muscarinic acetylcholine receptor M3 (Homo sapiens, UniProt P20309); test: CHRM3 Eurofins SafetyScan (Receptor)
Target sequence in this assay (P20309 whole entry): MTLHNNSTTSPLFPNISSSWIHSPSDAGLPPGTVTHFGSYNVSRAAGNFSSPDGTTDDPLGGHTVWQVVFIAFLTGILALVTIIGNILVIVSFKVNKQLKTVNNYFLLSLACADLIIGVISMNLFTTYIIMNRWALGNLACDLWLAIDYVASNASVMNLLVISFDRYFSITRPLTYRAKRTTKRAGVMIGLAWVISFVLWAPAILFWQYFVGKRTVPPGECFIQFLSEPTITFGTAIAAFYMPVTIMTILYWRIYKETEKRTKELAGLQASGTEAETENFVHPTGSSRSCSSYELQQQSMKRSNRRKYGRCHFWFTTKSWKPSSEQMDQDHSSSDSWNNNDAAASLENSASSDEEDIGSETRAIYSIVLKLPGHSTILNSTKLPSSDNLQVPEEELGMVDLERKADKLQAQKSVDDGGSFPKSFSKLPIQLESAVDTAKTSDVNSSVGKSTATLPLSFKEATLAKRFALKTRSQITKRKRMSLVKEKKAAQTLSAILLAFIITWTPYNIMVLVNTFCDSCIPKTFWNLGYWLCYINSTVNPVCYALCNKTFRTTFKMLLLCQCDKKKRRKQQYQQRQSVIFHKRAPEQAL

[12] = biological target: 5-hydroxytryptamine receptor 1D (Homo sapiens, UniProt P28221); conditions: Compound concentration 10.0 uM
[13] = biological target: Prostaglandin G/H synthase 2 (Homo sapiens, UniProt P35354); test: COX2 Eurofins SafetyScreen (Other); parameters: species or system Inhibitor
[14] = GPCRScan assay: inhibition of GABA/PBR; parameters: species or system Rattus norvegicus; radioligand conc. used [nm] 0.3 – 2.0, parental cells brain tissue
Adenosine receptor A2a = Adenosine receptor A2a (Homo sapiens, UniProt P29274); test: ADORA2A Eurofins SafetyScan (Receptor)
[15] = biological target: Alpha-1B adrenergic receptor (Homo sapiens) (UniProt P35368); conditions: Compound concentration 10.0 uM
[16] = biological target: D(1B) dopamine receptor (Homo sapiens) (UniProt P21918); conditions: Compound concentration 10.0 uM
[17] = biological target: Alpha-1A adrenergic receptor (Homo sapiens, UniProt P35348); test: ADRA1A Eurofins SafetyScan (Receptor)
[18] = biological target: 3',5'-cyclic-AMP phosphodiesterase 4D (Homo sapiens, UniProt Q08499); test: PDE4D2 Eurofins SafetyScreen (Other); parameters: species or system Inhibitor
[19] = biological target: Beta-2 adrenergic receptor (Homo sapiens, UniProt P07550); test: ADRB2 Eurofins SafetyScan (Receptor)
[20] = biological target: 5-hydroxytryptamine receptor 2C (Homo sapiens) (UniProt P28335); conditions: Compound concentration 10.0 uM
[21] = biological target: Voltage-gated inwardly rectifying potassium channel KCNH2 (Homo sapiens, UniProt Q12809); test: hERG Eurofins SafetyScreen (Other); parameters: species or system Blocker
[22] = biological target: T4, Muscarinic acetylcholine receptor M3; conditions: Compound concentration 10.0 uM
[23] = biological target: Sodium-dependent noradrenaline transporter (Homo sapiens, UniProt P23975); test: NET Eurofins SafetyScreen (Other); parameters: species or system Blocker
[24] = biological target: Muscarinic acetylcholine receptor M2 (Homo sapiens, UniProt P08172); test: CHRM2 Eurofins SafetyScan (Receptor)
Mu-type opioid receptor = Mu-type opioid receptor (Homo sapiens, UniProt P35372); conditions: Compound concentration 10.0 uM
[25] = biological target: Histamine H4 receptor (Homo sapiens) (UniProt Q9H3N8); conditions: Compound concentration 10.0 uM
[26] = biological target: Muscarinic acetylcholine receptor M5 (Homo sapiens) (UniProt P08912); conditions: Compound concentration 10.0 uM
Acetylcholinesterase = Acetylcholinesterase (Homo sapiens, UniProt P22303); test: AChE Eurofins SafetyScreen (Other); parameters: species or system Inhibitor
[27] = biological target: Potassium voltage-gated channel subfamily KQT member 1 (Homo sapiens, UniProt P51787); test: KvLQT1/minK Eurofins SafetyScreen (Other); parameters: species or system Blocker
Insulin receptor = Insulin receptor (Homo sapiens, UniProt P06213); test: INSR Eurofins SafetyScreen (Other); parameters: species or system Inhibitor
[28] = biological target: Sodium-dependent dopamine transporter (Homo sapiens, UniProt Q01959); test: GPCRScan assay: inhibition of DAT; parameters: radioligand conc. used [nm] 3.6 – 16.0, parental cells stable HEK
[29] = biological target: T3, Beta-1 adrenergic receptor; test: ADRB1 Eurofins SafetyScan (Receptor)
Target sequence in this assay (P08588 whole entry): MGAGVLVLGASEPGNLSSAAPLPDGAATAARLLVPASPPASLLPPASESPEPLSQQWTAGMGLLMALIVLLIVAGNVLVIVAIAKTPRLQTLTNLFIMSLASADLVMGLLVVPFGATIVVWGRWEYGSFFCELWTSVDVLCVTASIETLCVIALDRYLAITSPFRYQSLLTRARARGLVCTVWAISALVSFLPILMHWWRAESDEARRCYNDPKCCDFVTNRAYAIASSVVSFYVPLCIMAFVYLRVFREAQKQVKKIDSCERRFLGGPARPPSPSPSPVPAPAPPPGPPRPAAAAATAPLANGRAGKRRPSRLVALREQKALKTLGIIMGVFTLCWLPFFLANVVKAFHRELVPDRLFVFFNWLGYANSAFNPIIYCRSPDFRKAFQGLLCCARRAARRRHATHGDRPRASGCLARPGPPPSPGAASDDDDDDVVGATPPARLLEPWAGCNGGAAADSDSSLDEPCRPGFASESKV

[30] = biological target: Alpha-2A adrenergic receptor (Homo sapiens) (UniProt P08913); conditions: Compound concentration 10.0 uM
[31] = biological target: cGMP-inhibited 3',5'-cyclic phosphodiesterase 3A (Homo sapiens, UniProt Q14432); test: PDE3A Eurofins SafetyScreen (Other); parameters: species or system Inhibitor
[32] = biological target: Alpha-2A adrenergic receptor (Homo sapiens, UniProt P08913); test: ADRA2A Eurofins SafetyScan (Receptor)
D(2) dopamine receptor = D(2) dopamine receptor (Homo sapiens, UniProt P14416); conditions: Compound concentration 10.0 uM
[33] = biological target: T1, Kappa-type opioid receptor; test: OPRK1 Eurofins SafetyScan (Receptor)
[34] = biological target: Glutamate receptor ionotropic, NMDA 2D (Homo sapiens, UniProt O15399+Q05586); test: GluN2D-containing NMDA receptor (Ca2+ influx) assay (EC50)
[35] = biological target: Gamma-aminobutyric acid receptor subunit alpha-1 (Homo sapiens, UniProt P14867); test: GABAA Eurofins SafetyScreen (Other); parameters: species or system Blocker
[36] = biological target: 5-hydroxytryptamine receptor 5A (Homo sapiens) (UniProt P47898); conditions: Compound concentration 10.0 uM

T1 sequence (P41145 whole entry): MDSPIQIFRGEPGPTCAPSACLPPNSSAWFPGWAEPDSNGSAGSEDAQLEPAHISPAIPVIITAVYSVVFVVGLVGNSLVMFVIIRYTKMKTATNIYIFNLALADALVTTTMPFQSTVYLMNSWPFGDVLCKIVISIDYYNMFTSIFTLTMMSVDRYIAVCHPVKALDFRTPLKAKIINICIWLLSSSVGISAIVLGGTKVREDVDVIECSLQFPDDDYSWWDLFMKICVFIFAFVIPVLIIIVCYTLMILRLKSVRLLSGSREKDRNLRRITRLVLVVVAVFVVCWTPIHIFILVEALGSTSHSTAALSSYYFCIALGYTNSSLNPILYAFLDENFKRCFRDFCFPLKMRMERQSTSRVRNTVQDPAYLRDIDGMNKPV
T2 sequence (P25021 whole entry): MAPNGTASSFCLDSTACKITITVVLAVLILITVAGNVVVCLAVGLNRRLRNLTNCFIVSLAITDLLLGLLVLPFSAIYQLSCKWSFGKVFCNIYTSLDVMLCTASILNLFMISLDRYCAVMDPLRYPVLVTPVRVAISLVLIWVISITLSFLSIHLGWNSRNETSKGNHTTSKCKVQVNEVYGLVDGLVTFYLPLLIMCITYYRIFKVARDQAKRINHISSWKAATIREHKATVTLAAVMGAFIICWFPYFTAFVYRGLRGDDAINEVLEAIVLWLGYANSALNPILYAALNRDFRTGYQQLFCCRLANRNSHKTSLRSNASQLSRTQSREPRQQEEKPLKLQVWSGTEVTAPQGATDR
Chain of Sodium-dependent dopamine transporter (Q01959 whole entry): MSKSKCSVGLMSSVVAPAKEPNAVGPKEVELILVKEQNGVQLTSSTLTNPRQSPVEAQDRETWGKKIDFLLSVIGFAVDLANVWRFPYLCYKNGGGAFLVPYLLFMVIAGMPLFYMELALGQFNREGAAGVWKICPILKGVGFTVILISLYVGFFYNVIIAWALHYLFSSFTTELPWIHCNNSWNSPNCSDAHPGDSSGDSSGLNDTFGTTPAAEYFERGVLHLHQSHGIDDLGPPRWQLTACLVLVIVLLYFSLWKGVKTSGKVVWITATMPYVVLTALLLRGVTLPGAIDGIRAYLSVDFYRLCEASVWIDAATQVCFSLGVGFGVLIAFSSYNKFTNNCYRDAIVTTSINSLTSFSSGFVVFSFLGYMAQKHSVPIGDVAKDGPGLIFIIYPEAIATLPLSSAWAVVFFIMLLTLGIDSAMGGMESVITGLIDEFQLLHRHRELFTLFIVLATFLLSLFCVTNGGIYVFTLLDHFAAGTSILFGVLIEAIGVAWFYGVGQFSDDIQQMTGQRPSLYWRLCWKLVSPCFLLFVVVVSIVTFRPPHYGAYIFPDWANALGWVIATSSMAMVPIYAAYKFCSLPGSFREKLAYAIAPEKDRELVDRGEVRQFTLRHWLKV
Chain of Cannabinoid receptor 2 (P34972 whole entry): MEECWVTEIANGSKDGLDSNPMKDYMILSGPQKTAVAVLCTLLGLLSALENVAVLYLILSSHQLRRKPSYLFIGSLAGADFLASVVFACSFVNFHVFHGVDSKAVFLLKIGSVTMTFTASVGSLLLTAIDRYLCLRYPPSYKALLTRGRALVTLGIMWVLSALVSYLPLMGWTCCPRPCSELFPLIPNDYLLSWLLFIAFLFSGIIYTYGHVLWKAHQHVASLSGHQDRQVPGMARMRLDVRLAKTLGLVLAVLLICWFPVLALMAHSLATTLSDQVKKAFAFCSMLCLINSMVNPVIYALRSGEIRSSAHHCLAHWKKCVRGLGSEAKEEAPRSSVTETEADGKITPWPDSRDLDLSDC
Chain of Muscarinic acetylcholine receptor M1 (P11229 whole entry): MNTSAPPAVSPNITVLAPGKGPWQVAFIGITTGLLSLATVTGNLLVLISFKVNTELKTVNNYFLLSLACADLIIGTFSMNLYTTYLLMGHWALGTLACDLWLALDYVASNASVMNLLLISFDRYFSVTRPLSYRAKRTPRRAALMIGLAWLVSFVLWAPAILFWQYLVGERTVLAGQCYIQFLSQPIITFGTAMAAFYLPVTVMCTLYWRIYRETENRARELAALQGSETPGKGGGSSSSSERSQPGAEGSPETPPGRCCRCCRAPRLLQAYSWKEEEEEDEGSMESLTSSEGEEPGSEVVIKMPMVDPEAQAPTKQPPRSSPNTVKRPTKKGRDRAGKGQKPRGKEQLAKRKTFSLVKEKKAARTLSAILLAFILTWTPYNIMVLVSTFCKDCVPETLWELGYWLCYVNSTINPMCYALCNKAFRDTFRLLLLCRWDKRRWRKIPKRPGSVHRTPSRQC
Chain of Glucocorticoid receptor (P04150 whole entry): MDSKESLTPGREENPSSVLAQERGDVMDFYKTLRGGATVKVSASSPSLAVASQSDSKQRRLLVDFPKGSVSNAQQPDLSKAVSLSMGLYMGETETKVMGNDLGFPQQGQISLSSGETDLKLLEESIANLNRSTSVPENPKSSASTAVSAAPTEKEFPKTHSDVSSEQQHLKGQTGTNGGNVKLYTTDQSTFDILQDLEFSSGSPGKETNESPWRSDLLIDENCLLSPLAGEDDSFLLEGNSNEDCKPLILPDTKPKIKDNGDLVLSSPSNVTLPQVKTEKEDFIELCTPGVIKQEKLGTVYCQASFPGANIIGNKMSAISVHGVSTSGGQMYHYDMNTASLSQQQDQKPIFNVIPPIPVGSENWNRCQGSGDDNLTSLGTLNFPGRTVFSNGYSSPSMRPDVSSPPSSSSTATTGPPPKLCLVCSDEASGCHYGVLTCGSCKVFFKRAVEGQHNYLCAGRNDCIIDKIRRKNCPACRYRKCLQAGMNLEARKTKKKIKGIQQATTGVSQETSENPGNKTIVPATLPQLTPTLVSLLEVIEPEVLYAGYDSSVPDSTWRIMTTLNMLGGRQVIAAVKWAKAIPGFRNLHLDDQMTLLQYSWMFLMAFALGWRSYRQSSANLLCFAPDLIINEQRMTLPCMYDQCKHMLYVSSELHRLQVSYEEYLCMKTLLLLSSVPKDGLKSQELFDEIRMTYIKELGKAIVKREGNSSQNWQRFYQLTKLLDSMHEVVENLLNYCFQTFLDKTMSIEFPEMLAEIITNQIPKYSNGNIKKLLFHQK
Chain of Alpha-1A adrenergic receptor (P35348 whole entry): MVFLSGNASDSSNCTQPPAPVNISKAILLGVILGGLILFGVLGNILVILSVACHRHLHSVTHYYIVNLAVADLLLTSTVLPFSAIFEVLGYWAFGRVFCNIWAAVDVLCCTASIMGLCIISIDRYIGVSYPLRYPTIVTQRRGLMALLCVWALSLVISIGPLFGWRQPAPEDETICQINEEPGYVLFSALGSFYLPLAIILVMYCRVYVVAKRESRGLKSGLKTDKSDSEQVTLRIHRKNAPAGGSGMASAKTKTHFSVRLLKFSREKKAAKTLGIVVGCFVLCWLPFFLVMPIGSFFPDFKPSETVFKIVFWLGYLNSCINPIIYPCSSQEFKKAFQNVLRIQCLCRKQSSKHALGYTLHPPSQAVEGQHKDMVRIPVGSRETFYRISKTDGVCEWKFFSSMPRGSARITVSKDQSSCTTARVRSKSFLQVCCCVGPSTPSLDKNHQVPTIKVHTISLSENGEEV
Chain of Alpha-2A adrenergic receptor (P08913 whole entry): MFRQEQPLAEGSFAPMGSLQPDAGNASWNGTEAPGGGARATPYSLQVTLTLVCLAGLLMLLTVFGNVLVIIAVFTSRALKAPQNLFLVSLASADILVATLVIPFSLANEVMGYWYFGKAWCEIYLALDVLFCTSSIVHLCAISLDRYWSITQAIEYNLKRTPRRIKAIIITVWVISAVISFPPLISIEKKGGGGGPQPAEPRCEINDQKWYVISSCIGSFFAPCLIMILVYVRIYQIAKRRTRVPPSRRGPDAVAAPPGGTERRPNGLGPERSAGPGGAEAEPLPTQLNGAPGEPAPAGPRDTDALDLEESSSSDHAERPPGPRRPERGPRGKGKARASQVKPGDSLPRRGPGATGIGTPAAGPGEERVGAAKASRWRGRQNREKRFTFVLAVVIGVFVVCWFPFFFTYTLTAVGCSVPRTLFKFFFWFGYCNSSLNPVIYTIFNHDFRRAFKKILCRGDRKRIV

Cc1cn([C@H](C)CC#N)c(=O)c2cc(Cn3nc(C(F)F)cc3Cl)nn12
inhibition [1]: 2.27% | EC50 (Histamine H1 receptor): > 10 µM | IC50 (Histamine H1 receptor): > 10 µM | inhibition [2]: 12.5% | EC50 [3]: > 10 µM | IC50 [3]: > 10 µM | EC50 (Glucocorticoid receptor): > 10 µM | IC50 (Glucocorticoid receptor): > 10 µM | inhibition (Histamine H2 receptor [4]): 3.64% | inhibition [5]: -4.95% | inhibition [6]: 4.14% | inhibition [7]: 4.09% | EC50 (Cannabinoid receptor 2): > 10 µM | IC50 (Cannabinoid receptor 2): > 10 µM | EC50 (Histamine H2 receptor [8]): > 10 µM | IC50 (Histamine H2 receptor [8]): > 10 µM | inhibition (D(1A) dopamine receptor): 1.34% | inhibition (Rattus norvegicus): 83.2% | IC50 [9]: > 10 µM | IC50 [10]: > 10 µM | EC50 [11]: > 10 µM | IC50 [11]: > 10 µM | inhibition [12]: 90.8% | IC50 [13]: > 10 µM | Ki [14]: 336 nM | pKi [14]: 6.47 | EC50 (Adenosine receptor A2a): > 10 µM | IC50 (Adenosine receptor A2a): > 10 µM | inhibition [15]: -6.73% | inhibition [16]: 19.3% | EC50 [17]: > 10 µM | IC50 [17]: > 10 µM | IC50 [18]: > 10 µM | EC50 [19]: > 10 µM | IC50 [19]: > 10 µM | inhibition [20]: 13.1% | IC50 [21]: > 10 µM | inhibition [22]: 11.9% | IC50 [23]: > 10 µM | EC50 [24]: > 10 µM | IC50 [24]: > 10 µM | inhibition (Mu-type opioid receptor): 0.85% | inhibition [25]: 25.2% | inhibition [26]: 17.9% | IC50 (Acetylcholinesterase): > 10 µM | IC50 [27]: > 10 µM | IC50 (Insulin receptor): > 10 µM | Ki ([28]; read-out: Ki): 9.53 µM | Ki ([28]; read-out: pKi (converted)): 9.55 µM | EC50 [29]: > 10 µM | IC50 [29]: > 10 µM | inhibition [30]: 15.9% | IC50 [31]: 7.9 µM | EC50 [32]: > 10 µM | IC50 [32]: > 10 µM | inhibition (D(2) dopamine receptor): 9.18% | EC50 [33]: > 10 µM | IC50 [33]: > 10 µM | EC50 [34]: > 9.6 µM (not active) | IC50 [35]: > 10 µM | inhibition [36]: 7.54%
